Where “and” joins values, the source holds several entries; their conditions need not be identical. Identical values can stand only once.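 Assay format: 96-well plates, 48-hour exposure. GI50 = concentration required for 50% inhibition of growth. TGI: total growth inhibition.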 Where only a bound is given, the exact number is not on record here.

By GI50 is commonly meant the concentration that inhibits growth by half. In general, TGI refers to the concentration giving total growth inhibition. Low values mean greater sensitivity of the cells, high ones lower sensitivity of the cells.

The test relates to MDA-MB-468 breast. In words: DTP human tumour cell line panel, 48 h.
As to `CCOC(=O)/C=C/C(=O)[C@H](CC(C)C)NC(=O)[C@H](Cc1ccccc1)NC(=O)OCc1ccccc1`, the GI50 was 2.36 µM and the TGI amounted to 5.07 µM. Regarding `O=C(/C=C/C12c3ccccc3C(c3ccccc31)C1C(=O)NC(=O)C12)c1ccc(Cl)cc1` (centres undefined), the GI50 is 1.7 µM and the concentration for total growth inhibition (TGI) is 3.47 µM. In the same order, the values of `Cn1cc(-c2nn3cc(-c4ccncc4)nc3s2)c2cc(Cl)ccc21` are 2.19 µM and 7.84 µM. As for `Cc1ccc(-c2nc([P+](c3ccccc3)(c3ccccc3)c3ccccc3)c(Nc3ccccc3)o2)cc1`, the GI50 is 0.232 µM and the TGI was 0.719 µM. As to `C[C@@H]1COCCN1c1cc(C2([S@@](C)(=N)=O)CC2)nc(-c2ccnc3[nH]ccc23)n1`, the GI50 is 2.73 µM and the concentration for total growth inhibition (TGI) came to 25.6 µM. In the case of `COc1ccc(Cn2cc3c(c2-c2ccccc2)CCc2cnoc2-3)cc1N`, the GI50 was 0.039 µM and the TGI came to 0.385 µM. On to `Nc1nc(=O)n([C@@H]2CS[C@H](CO)O2)cc1F`, for which the GI50 is above 100 µM and the TGI was above 100 µM. In the case of `COc1cccc(/C(C)=N/NC(=O)CSc2nc3ccccc3c(=O)n2CCc2ccc(S(N)(=O)=O)cc2)c1`, the GI50 was 3.16 µM and the concentration for total growth inhibition (TGI) stood at 8.76 µM. Take `Nc1nc(N)c2cc(Sc3cccc(C(F)(F)F)c3)ccc2n1`: the GI50 is 1.02 µM and the TGI came out at 2.55 µM.

With `CCS(=O)(=O)c1ccc(OC)c(Nc2ncc(-c3ccccc3Cl)o2)c1`, the GI50 is 6.53 µM and the TGI is 19.6 µM. In the case of `CN1CCN(Cc2ccc3c(NNC(=O)c4ccccc4)nc4cc(F)ccc4n23)CC1`, the GI50 is 0.237 µM and the TGI turned out to be 1.65 µM.

As for `N#CN1CC[C@H](C(=O)Nc2cc3cc(C(N)=O)ccc3cn2)C1`, the GI50 is below 0.0146 µM and the TGI worked out at 0.0289 µM. On to `Cc1cc(Nc2cc(N3CCN(C)CC3)nc(Sc3ccc(NC(=O)C4CC4)cc3)n2)n[nH]1`, for which the 50% growth inhibitory concentration (GI50) was 0.24 µM and the concentration for total growth inhibition (TGI) is above 10 µM. Take `O=C(Nc1ccccc1O)c1ccc(NS(=O)(=O)c2cccc3cccnc23)cc1`: the GI50 is 0.679 µM and the TGI came to 3.75 µM. With `COc1cccc(C2C3=C(COC3=O)N(CCO)c3cc4c(cc32)OCO4)c1` (centres undefined), the GI50 was 0.131 µM. Turning to `COc1ccc(/C=C\c2cc(OC)c(OC)c(OC)c2)cc1OCC(=O)Nc1ccc2nc(C)sc2c1`, the GI50 is 2.39 µM and the concentration for total growth inhibition (TGI) came to 14 µM. Taken in the same sequence, the figures for `O=C(NCCNc1nccc(-c2c(-c3cccc(O)c3)nc3sccn23)n1)c1ccccc1` were 3.6 µM and 28.7 µM. For the molecule `COc1cc(/C=C/c2cc(/C=C/c3ccc(O)c(OC)c3)n(C(=O)Nc3ccc(Cl)cc3)n2)ccc1O`, the 50% growth inhibitory concentration (GI50) was 0.31 µM and the TGI was 1.82 µM. As to `Cc1ccc(-c2nc(-c3cn(C)c4ncccc34)cs2)cc1`, the GI50 is 2.66 µM and the TGI amounted to 9.92 µM. With `CNS(=O)(=O)OCC1OC(n2cnc3c(N)ncnc32)C(O)C1O` (centres undefined), the GI50 is 28.9 µM and the total growth inhibition concentration (TGI) was above 100 µM. In the same order, the values of `COc1cc(NCCN=C(N)NC(N)=NC(C)C)c2ncccc2c1` are 0.162 µM and 0.603 µM. In the same order, the values of `COc1cc2c(=O)n(CCN(C)C)c3c4cc5c(cc4ccc3c2cc1OC)OCO5` are 0.115 µM and 0.303 µM. With `Cc1cc(Cl)ccc1Nc1nc(C(F)(F)F)ccc1C(=O)N/N=C/c1ccccc1Cl`, the GI50 is 1.88 µM and the total growth inhibition concentration (TGI) was above 100 µM.

For the molecule `NC(=S)N=Nc1c(O)c2ccccc2c2ccccc12`, the GI50 is 44.3 µM and the TGI was above 100 µM.

On to `Cc1ccc(NCCN(C)C)c2c(=O)c3ccccc3sc12`, for which the GI50 is 1.67 µM and the TGI stood at 3.26 µM. Regarding `ClCc1cccc(CSc2ncnc3c2ncn3Cc2cccc(CCl)c2)c1`, the GI50 was 1.3 µM and the total growth inhibition concentration (TGI) was found to be 2.85 µM. On to `CC(=O)c1cc(C(=O)c2ccc3c(c2)Sc2ccccc2N3)c2c(C)cccn12`, for which the GI50 was 0.175 µM and the TGI is above 96 µM.

For the molecule `O=C(Nc1cc(Oc2cc(F)c(NC(=O)C3(C(=O)Nc4ccc(F)cc4)CC3)cc2F)ccn1)C1CC1`, the GI50 is 3.17 µM and the TGI stood at 6.14 µM. Take `C#COc1cccc(Nc2ncnc3cc(NC(=O)[C@H](C)Cl)ccc23)c1`: the GI50 is 11.7 µM and the TGI came out at 61 µM.

In the case of `Cc1c(C(N)=O)sc2c1c(=O)n(Cc1ccccc1)c1nnc(-c3ccc(Br)cc3)n21`, the GI50 was 2.04 µM and the total growth inhibition concentration (TGI) was found to be 6.94 µM. Consider `Cc1cnc(Nc2ccc(N3CCN(C)CC3)cc2)nc1Nc1ccc(Cl)c(NS(=O)(=O)C(C)(C)C)c1`, for which the GI50 was 0.153 µM and the TGI came out at 2.2 µM. Taken in the same sequence, the figures for `COc1ccccc1NS(=O)(=O)c1ccc2oc(SC(C)C)nc2c1` were 2.38 µM and 17.6 µM. For `O=C(C[P+](c1ccccc1)(c1ccccc1)c1ccccc1)C[P+](c1ccccc1)(c1ccccc1)c1ccccc1`, the concentration for 50% growth inhibition (GI50) was 0.165 µM and the TGI is 0.508 µM. On to `CCOC(=O)c1cnn2c3ccccc3n(S(=O)(=O)c3ccc(OC)cc3)c12`, for which the concentration for 50% growth inhibition (GI50) is 0.324 µM and the concentration for total growth inhibition (TGI) is above 100 µM. `CCOC(=O)c1c(NCC(=O)Nc2cccc([N+](=O)[O-])c2)sc2c1CCCC2`: the concentration for 50% growth inhibition (GI50) was 0.333 µM and the TGI is 1.43 µM. With `CN1CCN(CCOc2cc(OC3CCOCC3)c3c(Nc4c(Cl)ccc5c4OCO5)ncnc3c2)CC1`, the GI50 was 0.773 µM and 0.548 µM; the total growth inhibition concentration (TGI) was 3.49 µM and 7.54 µM. As for `C=C1C(=O)O[C@H]2[C@H]1CC/C(COC(=O)NCCc1c[nH]c3ccc(Cl)cc13)=C\CC[C@@]1(C)O[C@@H]21`, the GI50 is 1.65 µM and the TGI was 3.31 µM. Taken in the same sequence, the figures for `CCOC(=O)c1ccc2c(c1)[n+](=O)c(C(C)=O)c(C(F)(F)F)n2[O-]` were 1.59 µM and 3.29 µM. On to `CCCCCCCC(=O)OCC(=O)[C@]1(O)Cc2c(O)c3c(c(O)c2[C@@H](OC2CC(N)C(O)C(C)O2)C1)C(=O)c1c(OC)cccc1C3=O` (some centres undefined), for which the GI50 is 0.0398 µM and the total growth inhibition concentration (TGI) stood at 0.301 µM. Taken in the same sequence, the figures for `COc1cc(C2C3=C(COC3=O)N(CCO)c3cc4c(cc32)OCO4)cc(OC)c1O` (centres undefined) were 0.819 µM and 2.62 µM.

On to `O=C(CC(=O)c1cccc(Cl)c1)c1cccc(Cl)c1`, for which the GI50 is 1.77 µM and the TGI stood at 8.76 µM. With `O=S(=O)(Nc1ccc(F)c(Cl)c1)c1ccc(-c2cnc(C3CC3)o2)cc1`, the GI50 is 0.0982 µM and the TGI amounted to 1.63 µM. `COc1ccc(C2C=C(c3ccc(Cl)cc3)N=C3SC=C(C)N32)c(Br)c1` (centres undefined): the GI50 was 1.91 µM and the TGI was determined as 6.13 µM. Turning to `NC(=Nc1ccc(N)cc1)C(N)=Nc1ccc(N)cc1`, the GI50 was above 100 µM and the TGI was above 100 µM. On to `c1ccc([As]=[As]c2ccccc2)cc1` (centres undefined), for which the GI50 is 0.541 µM and the concentration for total growth inhibition (TGI) was determined as 2.31 µM.

(Values after PubChem BioAssay (NCI).)
